Data reported in patent EP4664463A1, “COMPUTER-IMPLEMENTED METHOD FOR OLFACTORY PROPERTY PREDICTION” (Givaudan SA, priority 2024, dated 2025).
Where two headings read alike, the source gives them in different places.

Columns and labels:
Assay type in all cases: cell-based
OR2AP1 = target: T1, OR2AP1 (Homo sapiens, UniProt Q8NGE2); assay: Luciferase assay with odorant mixtures/single ingredients, OR with SEQ ID NO: 221
T1 construct: expressed in transfected cells; host or cells: HEK293T stably expressing human RTP1S(V227I) and RTP2(L220R) (general method)
T1 sequence (Q8NGE2 with tags, fused parts or gaps): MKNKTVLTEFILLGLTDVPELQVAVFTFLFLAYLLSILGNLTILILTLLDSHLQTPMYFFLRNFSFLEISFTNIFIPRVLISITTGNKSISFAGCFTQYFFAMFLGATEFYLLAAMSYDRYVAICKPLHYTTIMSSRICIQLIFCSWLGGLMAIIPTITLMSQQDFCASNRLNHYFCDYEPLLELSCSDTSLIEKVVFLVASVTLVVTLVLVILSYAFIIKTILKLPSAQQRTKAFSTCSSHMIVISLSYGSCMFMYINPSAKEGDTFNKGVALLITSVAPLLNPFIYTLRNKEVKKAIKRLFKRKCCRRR

OR2J2 = target: T2, OR2J2 (Homo sapiens, UniProt O76002, A146V/A218T/A302I/G300K/H297E/H74Y); assay: as above
T2 construct: expressed in transfected cells; host or cells: HEK293T stably expressing human RTP1S(V227I) and RTP2(L220R) (general method)
T2 sequence (O76002 with tags, fused parts or gaps H74Y/A146V/A218T/H297E/G300K/A302I): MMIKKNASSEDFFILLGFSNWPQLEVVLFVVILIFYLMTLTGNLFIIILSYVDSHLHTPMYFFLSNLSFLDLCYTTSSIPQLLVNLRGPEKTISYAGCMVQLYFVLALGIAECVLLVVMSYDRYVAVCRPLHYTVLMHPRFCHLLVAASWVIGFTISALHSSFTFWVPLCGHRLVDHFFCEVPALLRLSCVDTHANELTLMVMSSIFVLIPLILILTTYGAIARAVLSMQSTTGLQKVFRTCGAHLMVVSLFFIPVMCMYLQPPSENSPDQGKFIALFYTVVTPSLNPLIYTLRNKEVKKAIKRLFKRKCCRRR
From the text: (§1) All human class II OR and all key genetic variants of these OR were synthesized with a sequence coding for an identical modified C-terminal domain […] (SEQ ID NO: 221) in the vector pcDNA3.1(+) to generate a library of all class II OR with an improved C-terminal domain. Class II OR library members with modified C-terminal domains
(§2) Similarly, a mixture of odorants with fruity-lactonic descriptors was made containing equal amounts of dodecalactone delta, heptalactone gamma, octalactone gamma, nonalactone gamma, undecalactone gamma, decalactone gamma, dodecalactone gamma, decalactone delta, methyl tuberate and nectaryl. […] Table 25. OR identified by screening class II OR with a mixture of fruity lactones
(§3) In a subsequent de-convolution experiment, the single ingredients were tested in a dose-response test on all the identified OR. […] Thus, OR2AP1 and OR2J2 are particularly strongly activated by the long-chain dodecalactone gamma, while OR10A3 is very sensitive to several longer chain lactones. […] Among the five OR, OR10A3 is the most sensitive. […] Table 26. OR identified by screening class II OR with a mixture of fruity lactones tested with individual lactones in a dose-response analysis

OR10J1(M51I,I92M) = target: T3, OR10J1(M51I,I92M) (Homo sapiens, UniProt P30954, I103M/M62I); assay: as above
T3 construct: expressed in transfected cells; host or cells: HEK293T stably expressing human RTP1S(V227I) and RTP2(L220R) (general method)
T3 sequence (P30954 with tags, fused parts or gaps M62I/I103M): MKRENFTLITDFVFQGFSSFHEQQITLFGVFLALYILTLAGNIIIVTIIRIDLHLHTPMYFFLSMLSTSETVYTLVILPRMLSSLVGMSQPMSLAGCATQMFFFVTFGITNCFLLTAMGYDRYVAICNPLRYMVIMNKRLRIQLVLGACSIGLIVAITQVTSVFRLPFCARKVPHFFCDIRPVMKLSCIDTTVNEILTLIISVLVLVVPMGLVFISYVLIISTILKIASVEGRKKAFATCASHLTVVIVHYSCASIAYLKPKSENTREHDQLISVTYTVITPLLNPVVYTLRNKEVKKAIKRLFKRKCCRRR
From the text: as §1, §2, §3

[1] = target: T4, OR10A6(A117V,V140G,L287P) (Homo sapiens, UniProt Q8NH74, A117V/L287P/V140G); assay: as above
T4 construct: expressed in transfected cells; host or cells: HEK293T stably expressing human RTP1S(V227I) and RTP2(L220R) (general method)
T4 sequence (Q8NH74 with tags, fused parts or gaps A117V/V140G/L287P): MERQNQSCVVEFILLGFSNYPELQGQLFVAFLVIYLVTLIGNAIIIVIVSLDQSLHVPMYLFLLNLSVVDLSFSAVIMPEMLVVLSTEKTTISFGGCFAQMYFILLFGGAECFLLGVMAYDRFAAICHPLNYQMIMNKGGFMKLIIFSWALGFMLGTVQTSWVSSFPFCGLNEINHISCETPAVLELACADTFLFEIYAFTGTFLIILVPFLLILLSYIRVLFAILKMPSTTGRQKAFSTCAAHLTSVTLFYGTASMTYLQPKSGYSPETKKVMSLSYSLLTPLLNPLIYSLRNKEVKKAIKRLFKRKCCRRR
From the text: as §1, §2, §3

OR10A3 = target: T5, OR10A3 (Homo sapiens, UniProt P58181); assay: as above
T5 construct: expressed in transfected cells; host or cells: HEK293T stably expressing human RTP1S(V227I) and RTP2(L220R) (general method)
T5 sequence (P58181 with tags, fused parts or gaps): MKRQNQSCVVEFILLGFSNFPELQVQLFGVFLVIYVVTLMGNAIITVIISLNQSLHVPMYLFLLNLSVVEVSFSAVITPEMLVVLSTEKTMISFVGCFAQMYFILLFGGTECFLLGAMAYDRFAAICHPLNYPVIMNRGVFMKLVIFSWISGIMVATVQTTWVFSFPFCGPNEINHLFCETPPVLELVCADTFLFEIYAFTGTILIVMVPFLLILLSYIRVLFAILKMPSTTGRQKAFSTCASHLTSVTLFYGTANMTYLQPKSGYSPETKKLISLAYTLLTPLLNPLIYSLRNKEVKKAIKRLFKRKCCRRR
From the text: as §1, §2, §3

OR2T4 = target: T6, OR2T4 (Homo sapiens, UniProt Q8NH00, D328E/G331D/M330K); assay: cell-based; conditions: OR2T4 with SEQ ID NO: 86
T6 construct: expressed in transfected cells; host or cells: HEK293T cells stably expressing human RTP1S (V227I) and RTP2 (L220R)
T6 sequence (Q8NH00 with tags, fused parts or gaps D328E/M330K/G331D): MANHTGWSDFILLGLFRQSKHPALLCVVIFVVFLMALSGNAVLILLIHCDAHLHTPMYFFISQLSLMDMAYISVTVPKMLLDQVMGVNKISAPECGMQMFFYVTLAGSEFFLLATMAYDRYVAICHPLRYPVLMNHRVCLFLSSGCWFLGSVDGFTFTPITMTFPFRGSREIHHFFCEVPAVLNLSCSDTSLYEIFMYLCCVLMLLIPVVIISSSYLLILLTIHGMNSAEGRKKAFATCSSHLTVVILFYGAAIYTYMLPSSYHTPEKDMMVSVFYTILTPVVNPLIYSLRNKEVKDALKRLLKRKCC
From the text: (§4) To create an expression plasmid, an OR coding sequence fused at the end of TM7 to the desired C-terminus sequence was synthesized by a DNA synthesis service provider (BioCat GmbH, Germany) and inserted into pcDNA3.1(+) (Invitrogen, MA, USA) downstream of the CMV promoter sequence (SEQ ID NO: 82) using BamHI and Notl restriction sites. All the synthetic OR nucleotide sequences described below in Examples 1-15 further contained at their N-terminus a nucleotide sequence encoding a signal peptide (mmLucy-FLAG-rho, SeQ ID NOs: 80, 81) and at the C-terminus the bgh terminator sequence (SEQ ID NO: 83). All the OR expression plasmids also contain a Kozak sequence (GCCACC) between the BamHI restriction site and the start codon of the signal peptide. These plasmids thus contain a constitutively expressed OR gene.

OR7C1 = target: T7, OR7C1 (Homo sapiens, UniProt O76099, D296E/G302K/M297V/R299D/T295K); assay: Luciferase dose-response, wild-type vs changed C-terminus (SEQ ID NO: 86); conditions: for EC50: read-out: Potency EC50
T7 construct: expressed in transfected cells; host or cells: HEK293T cells stably expressing human RTP1S (V227I) and RTP2 (L220R); transient transfection of pcDNA3.1(+) OR plasmid
T7 sequence (O76099 with tags, fused parts or gaps T295K/D296E/M297V/R299D/G302K limits assumed): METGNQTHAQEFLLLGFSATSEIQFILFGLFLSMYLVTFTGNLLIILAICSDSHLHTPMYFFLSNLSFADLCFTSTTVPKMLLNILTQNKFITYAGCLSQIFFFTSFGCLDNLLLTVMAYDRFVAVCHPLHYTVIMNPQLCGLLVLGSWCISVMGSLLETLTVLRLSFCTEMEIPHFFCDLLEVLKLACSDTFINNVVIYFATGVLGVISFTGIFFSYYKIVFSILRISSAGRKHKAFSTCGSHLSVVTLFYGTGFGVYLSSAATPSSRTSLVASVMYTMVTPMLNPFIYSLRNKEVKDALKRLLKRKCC
From the text: as §4

OR5A2 = target: T8, OR5A2 (Homo sapiens, UniProt Q8NGI9); assay: as above; conditions: OR5A2 with SEQ ID NO: 86
T8 construct: expressed in transfected cells; host or cells: HEK293T cells with stably integrated human RTP1S (V227I) and RTP2 (L220R)
T8 sequence (Q8NGI9 with tags, fused parts or gaps): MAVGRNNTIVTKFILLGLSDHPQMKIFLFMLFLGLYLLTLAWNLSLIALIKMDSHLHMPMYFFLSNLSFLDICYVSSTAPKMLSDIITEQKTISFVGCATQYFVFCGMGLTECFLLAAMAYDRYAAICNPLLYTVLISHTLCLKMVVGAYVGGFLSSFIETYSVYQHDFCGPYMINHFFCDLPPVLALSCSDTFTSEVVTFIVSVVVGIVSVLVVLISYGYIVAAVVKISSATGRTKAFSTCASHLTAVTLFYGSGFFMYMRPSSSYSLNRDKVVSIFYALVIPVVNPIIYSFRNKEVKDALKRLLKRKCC
From the text: as §4

| Structure (SMILES) | EC2 (concentration for 2-fold luciferase induction) (OR2AP1) | EC2 (concentration for 2-fold luciferase induction) (OR2J2) | EC2 (concentration for 2-fold luciferase induction) (OR10J1(M51I,I92M)) | EC2 (concentration for 2-fold luciferase induction) [1] | EC10 (concentration for 10-fold OR activation) (OR10A3) [µM] | also measured |
| --- | --- | --- | --- | --- | --- | --- |
| CCCCCCCCC1CCC(=O)O1 (stereo not shown) [Dodecalactone gamma] | 1.31 µM | 1.41 µM | 5.31 µM | 0.48 µM | 0.85 | – |
| CC1OCCC1S (stereo not shown) [2-methyl-3-tetrahydrofuranthiol] | – | – | – | – | – | ligands identified in screening of sulfur odorants (OR2T4): good ligands |
| CC1=CCC(C(C)CC2CCCC2=O)CC1 (stereo not shown) [Nectaryl] | 19.72 µM | – | inactive | 1.12 µM | 2.32 | – |
| CC(CO)C1=C2C(C)(C)C3CCC2(C3)C(C)(C)CC1 (stereo not shown) [Ambermax] | – | – | – | – | – | Comments on efficacy (OR7C1): 3.5-fold lower maximal induction for wild-type; Fold-improvement potency (OR7C1): 2.7; Fold-improvement threshold (OR7C1): 16.2; luciferase induction (OR7C1; 1 µM, OR7C1 with SEQ ID NO: 86): around 10 fold; EC50 (OR7C1; changed C-term SEQ ID NO: 86): 2.3 µM; Detection threshold; concentration for 2-fold induction (OR7C1; changed C-term. SEQ ID NO: 86): 0.17 µM; Detection threshold; concentration for 2-fold induction (OR7C1; wild-type): 2.76 µM; EC50 (OR7C1; wild-type): 6.14 µM |
| CCCC1CCC(=O)O1 (stereo not shown) [Heptalactone gamma] | inactive | inactive | inactive | inactive | 298.04 | – |
| CCCSSCCC [dipropyl disulfide] | – | – | – | – | – | ligands identified in screening of sulfur odorants (OR2T4): good ligands |
| CCOc1cc(C=O)ccc1O [ethyl vanillin] | – | – | – | – | – | response of the modified receptor (OR5A2): no response |
| CCCCCC1CCC(=O)O1 (stereo not shown) [Nonalactone gamma] | inactive | 12.85 µM | 11.14 µM | 11.34 µM | 2.83 | – |
| CCCCCC1CCCC(=O)O1 (stereo not shown) [Decalactone delta] | inactive | 98.89 µM | 31.73 µM | 5.31 µM | 2.10 | – |
| CCCCC1CCC(=O)O1 (stereo not shown) [Octalactone gamma] | inactive | 65.20 µM | 101.73 µM | inactive | 26.93 | – |
| CCCCCCCC1CCC(=O)O1 (stereo not shown) [Undecalactone gamma] | 6.53 µM | 0.71 µM | 2.11 µM | 0.34 µM | 0.28 | – |
| CCCCCCCC1CCCC(=O)O1 (stereo not shown) [Dodecalactone delta] | 15.76 µM | 35.12 µM | 31.38 µM | 1.11 µM | 2.59 | – |
| CCCCCCC1CCC(=O)O1 (stereo not shown) [Decalactone gamma] | 33.66 µM | 3.27 µM | 3.63 µM | 1.62 µM | 0.84 | – |
